Test results published in paper PMC4229146, “An Odorant-Binding Protein Is Abundantly Expressed in the Nose and in the Seminal Fluid of the Rabbit” (PLoS ONE, 2014).

What was measured:
rabOBP3 [1] = biological target: T1, rabOBP3; experiment: competitive displacement of fluorescent probe 1-NPN; type: binding, Oryctolagus cuniculus
T1 construct: native mature protein (161 amino acids) purified from rabbit seminal fluid, delipidated with dichloromethane

rabOBP3 [2] = biological target: T1, rabOBP3; experiment: fluorescent probe titration (direct fluorescence binding); parameters: species or system Oryctolagus cuniculus

`CCCCCC/C=C/C=O` [2-nonenal] was tested, and the Kd (rabOBP3 [1]) was 7.8 µM.

In the case of `c1ccc(Nc2cccc3ccccc23)cc1` [N-phenyl-1-naphthylamine], the Kd (rabOBP3 [2]) is reported as 3.8 µM.

Work on `CC(C)=CCC/C(C)=C/CO` [geraniol] yielded a Kd (rabOBP3 [1]) of 11.2 µM.

`O=c1c(O)c(-c2ccc(O)c(O)c2)oc2cc(O)cc(O)c12` [quercetin] showed a Kd (rabOBP3 [1]) of 2.2 µM.
